Laboratory results: ChEMBL document CHEMBL4196078, “Polypharmacology in HIV inhibition: can a drug with simultaneous action against two relevant targets be an alternative to combination therapy?” (Eur J Med Chem, 2018)
In brackets after ≈: the same amount, converted by molar mass.

Tests used:
[1] = test system: Human immunodeficiency virus 1; assay: Antiviral activity against HIV1 3B infected in human MT4 cells; type: functional, organism-based; settings: Human immunodeficiency virus 1, 3B
[2] = biological target: T1, Human immunodeficiency virus type 1 reverse transcriptase (Human immunodeficiency virus 1, UniProt Q72547); assay: Inhibition of HIV1 reverse transcriptase RNase H using RNA-DNA hybrid duplex after 30 mins by FRET-based microplate fluorescence assay
[3] = biological target: T1, Human immunodeficiency virus type 1 reverse transcriptase; assay: Inhibition of HIV1 reverse transcriptase polymerase p51/p66 after 10 to 20 mins in presence of [3H]-TTP by liquid scintillation counting method
[4] = test system: Human immunodeficiency virus 1; assay: Antiviral activity against HIV1 3B infected in human CEM/0 after 4 days by microscopic method; type: functional, organism-based; settings: Human immunodeficiency virus 1, 3B, CCRF-CEM, 96 h
[5] = test system: Human immunodeficiency virus 1; assay: Antiviral activity against HIV1; type: functional, organism-based
[6] = test system: Hepatitis B virus; assay: Antiviral activity against HBV; type: functional, organism-based
[7] = test system: Herpesviridae sp.; assay: Antiviral activity against HSV; type: functional, organism-based
[8] = test system: Herpesviridae sp.; assay: Potency index, ratio of tenofovir EC50 to compound EC50 for antiviral activity against HSV; type: functional
[9] = test system: Human immunodeficiency virus 2; assay: Antiviral activity against HIV2; type: functional, organism-based
[10] = test system: Moloney murine sarcoma virus; assay: Antiviral activity against MSV; type: functional, organism-based
[11] = test system: Human alphaherpesvirus 3; assay: Antiviral activity against VZV; type: functional, organism-based
[12] = test system: Human immunodeficiency virus 1; assay: Antiviral activity against HIV1 infected in human CEM cells assessed as reduction in giant cell formation by microscopic method; type: functional, organism-based; settings: Human immunodeficiency virus 1, CCRF-CEM
[13] = Half life of the compound in PBS by HPLC analysis; type: physicochemical
[14] = Stability in culture medium containing 10% FBS at 100 uM after 72 hrs by HPLC analysis; type: ADME; settings: cattle, read-out: Stability
[15] = biological target: Gag-Pol polyprotein (Human immunodeficiency virus type 1 group M subtype B (isolate HXB2)(HIV-1), UniProt P04585); assay: Inhibition of HIV1 reverse transcriptase polymerase; set-up: species or system Human immunodeficiency virus 1
[16] = biological target: T1, Human immunodeficiency virus type 1 reverse transcriptase; assay: Inhibition of HIV1 reverse transcriptase RNase H
[17] = test system: Human immunodeficiency virus 1; assay: Antiviral activity against HIV1 Lai infected in human MOLT4 cells after 7 days by WST8 assay; type: functional, organism-based; settings: Human immunodeficiency virus 1, M:B_Lai, MOLT-4, 168 h
[18] = biological target: T1, Human immunodeficiency virus type 1 reverse transcriptase; assay: Inhibition of HIV1 3B reverse transcriptase using polyC/oligo(dG12) as template/primer in presence of [3H]dGTP and calf thymus DNA after 30 mins
[19] = biological target: Human immunodeficiency virus type 1 reverse transcriptase (Human immunodeficiency virus 1, UniProt Q72547, E138K); assay: Inhibition of TSAO resistant HIV1 3B reverse transcriptase E138K mutant using polyC/oligo(dG12) as template/primer in presence of [3H]dGTP and calf thymus DNA after 30 mins
[20] = test system: Human immunodeficiency virus 1; assay: Antiviral activity against PFA-resistant HIV1 harboring RT W88G mutant infected in human P4/R5 cells after 48 hrs by beta-galactosidase reporter gene assay; type: functional, organism-based; settings: Human immunodeficiency virus 1, P4/R5, 48 h
[21] = test system: Human immunodeficiency virus 1; assay: Antiviral activity against HIV1 3B infected in human MT4 cells by MTT assay; type: functional, organism-based; settings: Human immunodeficiency virus 1, 3B
[22] = test system: Human immunodeficiency virus 1; assay: Antiviral activity against HIV1 3B infected in human PBMC after 5 days by MTT assay; type: functional, organism-based; settings: Human immunodeficiency virus 1, 3B, 120 h
[23] = test system: Human immunodeficiency virus 1; assay: Antiviral activity against HIV1 Lai infected in human CEM-SS cells after 5 days by MTT assay; type: functional, organism-based; settings: Human immunodeficiency virus 1, M:B_Lai, 120 h
[24] = test system: Human immunodeficiency virus 2; assay: Antiviral activity against HIV2 D194 infected in human PBMC after 5 days by MTT assay; type: functional, organism-based, Human immunodeficiency virus type 2 (ISOLATE D194); settings: Human immunodeficiency virus 2, 120 h

## O=c1[nH]cnc2c1ncn2[C@H]1CC[C@@H](CO)O1 [DIDANOSINE]
[1]
  EC50: 13300 nM

## COc1ccc2ccccc2c1/C=N/NC(=O)c1ccc(Oc2ccccc2)cc1
[2]
  IC50: 7000 nM
[3]
  IC50: 400 nM

## Cc1cn([C@@H]2O[C@H](CO[Si](C)(C)C(C)(C)C)[C@@]3(OS(=O)(=O)C=C3N)[C@H]2O[Si](C)(C)C(C)(C)C)c(=O)n(CCCn2c(=O)c(C)cn([C@H]3C[C@H](N=[N+]=[N-])[C@@H](CO)O3)c2=O)c1=O
[4]
  EC50: 90 nM

## CC(C)(C)NC(=O)[C@H]1N(C(=O)[C@@H](O)[C@H](Cc2ccccc2)NC(=O)CC(C)(C)C(=O)O)CSC1(C)C
[5]
  EC50: 52 nM

## COc1ccc2ccccc2c1/C=N/NC(=O)c1ccc(O)c(O)c1
[2]
  IC50: 500 nM
[3]
  IC50: > 25000 nM

## Nc1cc(OCCOCP(=O)(O)O)nc(N)n1
[5]
  EC50: 0.8 µg/mL
[6]
  EC50: 300 nM
[7]
  EC50: 6.3 µg/mL (≈ 23.8 µM)
[8]
  Ratio EC50: 20

## Nc1nc(N)nc(OCCOCP(=O)(O)O)n1
[5]
  EC50: 2400 nM
[6]
  EC50: 3100 nM
[9]
  EC50: 3700 nM
[10]
  EC50: 350 nM
[11]
  EC50: 3100 nM

## COC(=O)P(=O)(OC)OCCCn1c(=O)c(C)cn([C@@H]2O[C@H](CO[Si](C)(C)C(C)(C)C)[C@@]3(OS(=O)(=O)C=C3N)[C@H]2O[Si](C)(C)C(C)(C)C)c1=O (stereo partly specified)
[12]
  EC50: 80 to 4500 nM
[13]
  half-life: 30 min

## C[C@H](Cn1cnc2c(N)ncnc21)OCP(=O)(O)O [TENOFOVIR ANHYDROUS]
[7]
  EC50: 105 µg/mL (≈ 366 µM)

## NC(=O)c1ncn([C@@H]2O[C@H](COP(=O)(O)OC[C@@H]3CC[C@H](n4cnc5c(=O)[nH]cnc54)O3)[C@@H](O)[C@H]2O)n1
[14]
  remaining at 72 h, 100 µM: 44%

## Cc1cn([C@H]2C=C[C@@H](COC(=O)OC[C@@H]3C=C[C@H](n4cc(C)c(=O)[nH]c4=O)O3)O2)c(=O)[nH]c1=O
[5]
  EC50: 240 nM

## O=C(Oc1ccc2c(c1OC(=O)c1ccccc1)C(=O)c1ccccc1C2=O)c1ccccc1
[15]
  IC50: 12000 nM
[16]
  IC50: 13000 nM

## Cc1cn([C@H]2C[C@H](N=[N+]=[N-])[C@@H](COP(=O)(O)OC[C@H]3O[C@@H](n4cnc(C(N)=O)n4)[C@H](O)[C@@H]3O)O2)c(=O)[nH]c1=O
[14]
  remaining at 72 h, 100 µM: 36%

## Cc1cccc(C)c1OCC(=O)N[C@@H](Cc1ccccc1)[C@H](O)C(=O)N1CSC(C)(C)[C@H]1C(=O)NC(C)(C)C
[17]
  EC50: 92 nM

## Cc1cn([C@H]2C=C[C@@H](COC(=O)NCCCCNC(=O)OC[C@H]3O[C@@H](n4cc(C)c(=O)[nH]c4=O)C[C@@H]3N=[N+]=[N-])O2)c(=O)[nH]c1=O
[5]
  EC50: 96300 nM

## Cc1cn([C@H]2C=C[C@@H](COC(=O)OC[C@H]3O[C@@H](n4cc(C)c(=O)[nH]c4=O)C[C@@H]3N=[N+]=[N-])O2)c(=O)[nH]c1=O
[5]
  EC50: 6 nM

## Cc1cn([C@H]2C[C@H](N=[N+]=[N-])[C@@H](COP(=O)(O)OC[C@@H]3CC[C@H](n4cnc5c(=O)[nH]cnc54)O3)O2)c(=O)[nH]c1=O
[1]
  EC50: 2 nM
[14]
  remaining at 72 h, 100 µM: 57%

## Cc1cn([C@H]2C=C[C@@H](COC(=O)OCc3ccc(NC(=O)/C(O)=C/C(=O)c4cc(OCc5ccccc5)cc(OCc5ccccc5)c4)cc3)O2)c(=O)[nH]c1=O (stereo in doubt)
[5]
  EC50: 430 nM

## COC(=O)P(=O)([O-])OCCCn1c(=O)c(C)cn([C@@H]2O[C@H](CO[Si](C)(C)C(C)(C)C)[C@@]3(OS(=O)(=O)C=C3N)[C@H]2O[Si](C)(C)C(C)(C)C)c1=O.[Na+]
[18]
  IC50: 3700 to 11000 nM
[19]
  IC50: 293000 to 430000 nM
[12]
  EC50: 80 to 4500 nM
[13]
  half-life: 30 min

## Cc1cn([C@H]2C[C@H](N=[N+]=[N-])[C@@H](CO)O2)c(=O)[nH]c1=O [ZIDOVUDINE]
[1]
  EC50: 2 nM
[5]
  EC50: 126 nM
[17]
  EC50: 6.2 nM

## Cc1cn([C@@H]2O[C@H](CO[Si](C)(C)C(C)(C)C)[C@@]3(OS(=O)(=O)C=C3N)[C@H]2O[Si](C)(C)C(C)(C)C)c(=O)n(CCCO)c1=O
[12]
  EC50: 100 nM

## Cc1cn([C@H]2C[C@H](N=[N+]=[N-])[C@@H](COC(=O)NCCCCNC(=O)OC[C@H]3O[C@@H](n4cc(C)c(=O)[nH]c4=O)C[C@@H]3N=[N+]=[N-])O2)c(=O)[nH]c1=O
[5]
  EC50: 26000 nM

## CCc1c(Sc2cc(C)cc(C)c2)n(COCCO)c(=O)[nH]c1=O
[1]
  EC50: 7 nM

## Cc1cn([C@@H]2O[C@H](CO[Si](C)(C)C(C)(C)C)[C@@]3(OS(=O)(=O)C=C3N)[C@H]2O[Si](C)(C)C(C)(C)C)c(=O)n(CCCOP(=O)(O)C(=O)OCc2ccccc2)c1=O
[18]
  IC50: 3700 to 11000 nM
[19]
  IC50: 293000 to 430000 nM
[12]
  EC50: 80 to 4500 nM
[13]
  half-life: 30 min

## Cc1cn([C@H]2C[C@H](N=[N+]=[N-])[C@@H](COC(=O)OC[C@H]3O[C@@H](n4cc(C)c(=O)[nH]c4=O)C[C@@H]3N=[N+]=[N-])O2)c(=O)[nH]c1=O
[5]
  EC50: 2 nM

## Cc1cn([C@H]2C[C@H](N=[N+]=[N-])[C@@H](COP(=O)(OC[C@@H]3CC[C@H](n4cnc5c(=O)[nH]cnc54)O3)OC[C@@H]3CC[C@H](n4cnc5c(=O)[nH]cnc54)O3)O2)c(=O)[nH]c1=O
[1]
  EC50: 165 nM

## O=C1c2ccccc2C(=O)c2c1ccc(O)c2O [ATHRAQUINONES A]
[15]
  IC50: 79000 nM
[16]
  IC50: > 100000 nM

## Nc1ncnc2c1ncn2CCOCP(=O)(O)O [ADEFOVIR]
[5]
  EC50: 2000 nM
[6]
  IC50: 700 nM

## Cc1cn([C@@H]2O[C@H](CO[Si](C)(C)C(C)(C)C)[C@@]3(OS(=O)(=O)C=C3N)[C@H]2O[Si](C)(C)C(C)(C)C)c(=O)n(CCCOP(=O)(O)C(=O)O)c1=O
[18]
  IC50: 3700 to 11000 nM
[19]
  IC50: 293000 to 430000 nM
[12]
  EC50: 80 to 4500 nM
[20]
  EC50: 160 nM
[13]
  half-life: 30 min

## CCc1c(Sc2cc(C)cc(C)c2)n(CCCCC(=O)NCCCCCCCCCCCCNc2ccn([C@H]3CC[C@@H](CO)O3)c(=O)n2)c(=O)[nH]c1=O
[21]
  EC50: 450 nM
[22]
  EC50: 450 nM
[23]
  EC50: 450 nM
[24]
  EC50: 450 nM

## Cc1cccc(C)c1OCC(=O)N[C@@H](Cc1ccccc1)[C@H](OC(=O)CCCC(=O)NCC(=O)OC[C@H]1O[C@@H](n2cc(C)c(=O)[nH]c2=O)C[C@@H]1N=[N+]=[N-])C(=O)N1CSC(C)(C)[C@H]1C(=O)NC(C)(C)C
[17]
  EC50: 0.1 nM

## COc1ccc2ccccc2c1/C=N/NC(=O)c1ccc(-c2ccccc2)cc1
[2]
  IC50: 5000 nM
[3]
  IC50: 500 nM

## CCOC(=O)P(=O)(O)OCCCn1c(=O)c(C)cn([C@@H]2O[C@H](CO[Si](C)(C)C(C)(C)C)[C@@]3(OS(=O)(=O)C=C3N)[C@H]2O[Si](C)(C)C(C)(C)C)c1=O
[18]
  IC50: 3700 to 11000 nM
[19]
  IC50: 293000 to 430000 nM
[12]
  EC50: 80 to 4500 nM
[13]
  half-life: 30 min
